This is an account of results in ChEMBL document CHEMBL1201862, “PubChem BioAssay data set” (2004).

For one assay, the system named is H9c2. Put plainly: cells. Format: functional, cell-based. As to conditions: Rattus norvegicus, H9c2, Myocardium.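 Note: confirmatory concentration-response retest of ultra-high-throughput screening hits for modulation of myocardial damage; cell death induced by hydrogen peroxide oxidative stress; compound pretreatment for 60 min then peroxide exposure for 2 h; potency is for protecting the cells against peroxide damage rather than for killing them.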
The target of the next assay is Melanocortin receptor 4 (Homo sapiens, UniProt P32245). Nature of the assay: MC4R antagonist potency on cAMP, dose response, cell-based, TR-FRET, biased antagonists (AID 602298).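 Note: antagonist potency against agonist-stimulated cAMP production.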 The class given is functional. A general note: Time-resolved FRET reads energy transfer from a long-lived donor to a nearby acceptor.
Melanocortin receptor 4, sequence (P32245 whole entry): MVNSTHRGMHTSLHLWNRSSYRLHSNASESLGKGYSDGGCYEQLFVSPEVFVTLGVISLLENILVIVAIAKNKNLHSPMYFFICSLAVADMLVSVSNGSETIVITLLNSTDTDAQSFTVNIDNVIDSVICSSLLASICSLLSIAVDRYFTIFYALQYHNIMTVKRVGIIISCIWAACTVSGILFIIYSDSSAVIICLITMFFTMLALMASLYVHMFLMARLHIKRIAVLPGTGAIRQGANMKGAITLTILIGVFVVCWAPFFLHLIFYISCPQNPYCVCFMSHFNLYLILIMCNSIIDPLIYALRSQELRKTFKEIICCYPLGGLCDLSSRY
Another assay addresses Paired box protein Pax-8 (Homo sapiens, UniProt Q06710). Put plainly: inhibitors of PAX8-driven TPO luciferase reporter, dose response, RMG-I cells, cherry-pick (AID 687027).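 Note: luciferase reporter driven by Pax8 target thyroperoxidase promoter measured by SteadyGlo luminescence.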 The class given is functional, cell-based. In general terms: In a reporter assay the amount or activity of a reporter protein is the signal.
The target of assay [1] is T1, ATP-dependent translocase ABCB1 (Homo sapiens, UniProt P08183). Put plainly: ABCG2 efflux pump inhibitor potency, dose response, Ig-MXP3 cells, JC-1, flow cytometry, set 2 (AID 504566).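 Note: flow cytometry median green fluorescence of retained JC-1 dye; potency of efflux pump inhibition measured as rising substrate retention.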 The class given is functional. As to conditions: read-out: EC50_MICROM_. In general terms: Flow cytometry measures light scatter and fluorescence of single cells or particles in a stream.
T1 sequence (P08183 whole entry): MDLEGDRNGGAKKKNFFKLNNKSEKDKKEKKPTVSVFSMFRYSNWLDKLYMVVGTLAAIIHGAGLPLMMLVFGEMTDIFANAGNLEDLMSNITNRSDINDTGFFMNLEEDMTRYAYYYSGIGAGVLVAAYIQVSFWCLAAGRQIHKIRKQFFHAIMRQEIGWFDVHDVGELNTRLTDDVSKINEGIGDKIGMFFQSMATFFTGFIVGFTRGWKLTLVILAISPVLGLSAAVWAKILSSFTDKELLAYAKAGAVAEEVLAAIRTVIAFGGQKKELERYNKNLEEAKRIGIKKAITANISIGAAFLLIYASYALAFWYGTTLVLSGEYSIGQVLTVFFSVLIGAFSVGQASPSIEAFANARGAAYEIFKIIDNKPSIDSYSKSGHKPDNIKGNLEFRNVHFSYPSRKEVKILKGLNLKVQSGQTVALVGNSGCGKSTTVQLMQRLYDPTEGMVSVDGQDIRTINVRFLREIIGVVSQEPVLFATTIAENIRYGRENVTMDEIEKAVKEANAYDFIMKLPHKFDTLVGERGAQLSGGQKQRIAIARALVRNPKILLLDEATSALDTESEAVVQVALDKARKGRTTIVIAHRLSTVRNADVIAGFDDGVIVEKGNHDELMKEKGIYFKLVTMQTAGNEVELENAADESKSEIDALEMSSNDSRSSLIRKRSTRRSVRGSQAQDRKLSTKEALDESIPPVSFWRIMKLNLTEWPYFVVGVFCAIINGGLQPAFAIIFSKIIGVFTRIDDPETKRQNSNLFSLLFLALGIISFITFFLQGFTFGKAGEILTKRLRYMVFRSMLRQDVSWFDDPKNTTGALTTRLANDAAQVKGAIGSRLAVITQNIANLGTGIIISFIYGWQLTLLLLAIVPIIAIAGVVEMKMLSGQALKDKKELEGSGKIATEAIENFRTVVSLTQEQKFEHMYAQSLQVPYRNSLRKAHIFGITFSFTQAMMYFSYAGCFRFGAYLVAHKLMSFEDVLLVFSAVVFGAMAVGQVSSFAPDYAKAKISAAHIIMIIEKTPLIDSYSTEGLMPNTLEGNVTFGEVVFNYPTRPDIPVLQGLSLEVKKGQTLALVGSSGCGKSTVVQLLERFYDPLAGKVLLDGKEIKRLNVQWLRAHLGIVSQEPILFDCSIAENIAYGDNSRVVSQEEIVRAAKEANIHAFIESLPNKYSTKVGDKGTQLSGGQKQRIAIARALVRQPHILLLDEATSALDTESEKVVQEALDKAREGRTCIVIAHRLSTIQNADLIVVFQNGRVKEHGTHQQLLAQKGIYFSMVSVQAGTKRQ

Another assay deals with HEK293. Nature of the assay: inhibitors of LMP1-driven NF-kB reporter, dose response, cell-based, HEK293, luciferase, cherry-pick (AID 588343). Format: functional. The settings on record: Homo sapiens.
Assay [2] can be described thus: nonselective inhibitors of cellular cAMP signaling, dose response, counter-screen for MC4R biased antagonist project, cell-based, TR-FRET cAMP detection (AID 602305).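 Note: U2OS cells stimulated with forskolin near its EC80 as the cAMP inducer; potency is for inhibition of forskolin-stimulated cAMP signaling.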 Format: functional.
Assay [3] in a line: non-specific cell cytotoxicity, dose response, cytotoxicity control for PAX8 inhibitor project, plate reader, dry powder samples (AID 743021). The class given is functional, cell-based.
The target in assay [4] is T1, ATP-dependent translocase ABCB1. Nature of the assay: ABCB1 efflux inhibitor potency, dose response, Jurkat-DNR cells, JC-1, flow cytometry, set 2 (AID 504569).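 Note: potency of pump inhibitors that raise cellular JC-1 green fluorescence up to the nicardipine level.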 The class given is functional. The settings on record: read-out: EC50_MICROM_.
Assay [5] addresses T2, DNA dC->dU-editing enzyme APOBEC-3G (Homo sapiens, UniProt Q9HC16). Put plainly: SAR analysis of small molecule inhibitors of APOBEC3G DNA Deaminase via a fluorescence-based single-stranded DNA deaminase assay - Set 2. The class given is functional. The settings on record: read-out: IC50_Mean.
The target in assay [6] is T2, DNA dC->dU-editing enzyme APOBEC-3G. Put plainly: APOBEC3G deaminase inhibitors, SAR follow-up, biochemical, fluorescence, single-stranded DNA substrate (AID 602136). Format: functional. As to conditions: read-out: IC50_Mean.
Assay [7] addresses T3, DNA dC->dU-editing enzyme APOBEC-3A (Homo sapiens, UniProt P31941). Nature of the assay: SAR analysis of small molecule inhibitors of APOBEC3A DNA Deaminase via a fluorescence-based single-stranded DNA deaminase assay. The class given is functional. The settings on record: read-out: IC50_Mean.
In assay [8] the target is T3, DNA dC->dU-editing enzyme APOBEC-3A. Nature of the assay: SAR analysis of small molecule inhibitors of APOBEC3A DNA Deaminase via a fluorescence-based single-stranded DNA deaminase assay - Set 2. The class given is functional. The settings on record: read-out: IC50_Mean.
Assay [9] concerns the target Neuropeptides B/W receptor type 1 (Homo sapiens, UniProt P48145). Put plainly: GPR7 antagonist potency, late-stage follow-up, cell-based, fluorescence, dose response, set 6 (AID 588583). Format: functional.
The target of assay [10] is Melanin-concentrating hormone receptor 1 (Homo sapiens, UniProt Q99705). Put plainly: Late-stage fluorescence-based counterscreen for antagonists of the G-protein coupled receptor 7 (GPR7): cell-based dose response assay to identify antagonists of the melanin-concentrating hormone receptor 1 (MCHR1) Set 6. Format: functional.
Melanin-concentrating hormone receptor 1, sequence (Q99705 whole entry): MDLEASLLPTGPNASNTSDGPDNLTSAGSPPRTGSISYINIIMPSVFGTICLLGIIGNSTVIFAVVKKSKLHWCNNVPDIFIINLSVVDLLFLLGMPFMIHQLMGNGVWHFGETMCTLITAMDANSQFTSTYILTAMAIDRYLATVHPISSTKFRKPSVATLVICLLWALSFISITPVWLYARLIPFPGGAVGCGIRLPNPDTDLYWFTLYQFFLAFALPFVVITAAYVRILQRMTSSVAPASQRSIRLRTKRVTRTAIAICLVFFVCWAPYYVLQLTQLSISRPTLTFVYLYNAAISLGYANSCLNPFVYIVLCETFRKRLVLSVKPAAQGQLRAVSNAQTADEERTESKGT

Active and inactive are the calls of the source.

T2 sequence (Q9HC16 whole entry): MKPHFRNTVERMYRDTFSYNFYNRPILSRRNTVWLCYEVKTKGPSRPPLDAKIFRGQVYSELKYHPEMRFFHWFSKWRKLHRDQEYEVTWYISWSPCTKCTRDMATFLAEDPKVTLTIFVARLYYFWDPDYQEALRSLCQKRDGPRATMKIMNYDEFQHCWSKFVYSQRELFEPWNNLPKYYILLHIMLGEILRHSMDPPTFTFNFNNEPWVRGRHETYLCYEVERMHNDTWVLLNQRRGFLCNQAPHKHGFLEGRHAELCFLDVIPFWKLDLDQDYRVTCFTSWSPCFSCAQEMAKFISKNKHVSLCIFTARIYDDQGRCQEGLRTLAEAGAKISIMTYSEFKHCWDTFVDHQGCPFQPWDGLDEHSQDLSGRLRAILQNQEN
T3 sequence (P31941 whole entry): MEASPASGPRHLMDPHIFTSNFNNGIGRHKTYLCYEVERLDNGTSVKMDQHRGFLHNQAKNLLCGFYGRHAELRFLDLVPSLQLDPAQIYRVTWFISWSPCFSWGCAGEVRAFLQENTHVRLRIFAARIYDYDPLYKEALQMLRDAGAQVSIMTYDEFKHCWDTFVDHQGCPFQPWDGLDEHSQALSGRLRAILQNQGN
Neuropeptides B/W receptor type 1, sequence (P48145 whole entry): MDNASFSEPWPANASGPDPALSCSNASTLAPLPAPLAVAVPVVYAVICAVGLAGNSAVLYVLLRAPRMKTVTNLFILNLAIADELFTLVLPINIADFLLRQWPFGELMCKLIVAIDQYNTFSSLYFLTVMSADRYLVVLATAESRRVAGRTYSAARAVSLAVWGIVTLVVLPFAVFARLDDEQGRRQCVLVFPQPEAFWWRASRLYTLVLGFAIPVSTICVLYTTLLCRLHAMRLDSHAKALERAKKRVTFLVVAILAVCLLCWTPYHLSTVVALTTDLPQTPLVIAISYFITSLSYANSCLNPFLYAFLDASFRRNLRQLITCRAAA
Paired box protein Pax-8, sequence (Q06710 whole entry): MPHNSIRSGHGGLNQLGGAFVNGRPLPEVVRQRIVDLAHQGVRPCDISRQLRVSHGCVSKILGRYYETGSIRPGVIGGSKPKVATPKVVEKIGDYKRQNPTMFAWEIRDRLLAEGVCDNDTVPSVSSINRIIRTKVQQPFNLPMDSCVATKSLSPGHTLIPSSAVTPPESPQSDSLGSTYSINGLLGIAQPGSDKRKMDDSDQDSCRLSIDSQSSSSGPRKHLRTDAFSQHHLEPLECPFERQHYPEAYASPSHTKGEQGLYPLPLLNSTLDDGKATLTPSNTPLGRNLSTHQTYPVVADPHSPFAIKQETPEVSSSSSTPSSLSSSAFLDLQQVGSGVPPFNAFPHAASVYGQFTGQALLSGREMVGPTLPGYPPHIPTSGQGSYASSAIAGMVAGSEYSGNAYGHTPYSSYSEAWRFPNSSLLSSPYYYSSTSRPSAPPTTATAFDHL

With `C#Cc1cc(N2CCN(C(=O)c3ccoc3)CC2)n2nc(-c3cccc(Cl)c3)cc2n1`, the IC50 with H9c2 was > 79 µM (inactive); on Melanocortin receptor 4, > 64.6 µM (inactive); in assay [2], > 64.6 µM (inactive). The AC50 was 3.79 µM (active) at Paired box protein Pax-8, 13.4 µM (active) in the assay on HEK293 and 4.43 µM (active) in assay [3]. The EC50 in assay [1] is 1.98 µM (active); in [4], 7.34 µM (active).
Take `O=C(NCc1ccc2c(c1)OCO2)c1nn2cccnc2c1Cl`: the IC50 was 49.9 µM (inactive) in [5], > 99 µM (inactive) in assay [6], > 99 µM (inactive) in assay [7] and > 99 µM (inactive) in [8].
Regarding `N#CC(c1ccccc1F)c1c(Cl)cnn(Cc2cccc3ccccc23)c1=O` (centres undefined), the IC50 in [9] and in [10] was 0.937 µM (active) throughout.

The AC50 is the concentration at which the activity in the assay is half-maximal.
